# Biological target: T1, RXRα (Homo sapiens, UniProt P19793)
# T1 sequence (P19793 227-458 limits assumed): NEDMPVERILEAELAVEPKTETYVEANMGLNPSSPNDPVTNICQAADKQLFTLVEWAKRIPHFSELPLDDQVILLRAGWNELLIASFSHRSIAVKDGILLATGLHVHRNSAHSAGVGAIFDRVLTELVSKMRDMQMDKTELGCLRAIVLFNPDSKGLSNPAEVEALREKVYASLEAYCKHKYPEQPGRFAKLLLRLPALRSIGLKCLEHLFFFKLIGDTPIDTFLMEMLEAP
# Experiment: RXRα activation EC50 (Luc and GFP UAS/Gal4 assays)
# Experimental: UAS/Gal4 assay. Bone marrow cells from UAS-GFP mice [79] were transduced with retroviruses MSCV-Gal4 (DNA binding domain, DBD)—RXRα (ligand binding domain, LBD)—IRES—mCherry. […] Cells were treated, and after 48 h, GFP was measured by flow cytometry.
# Luciferase detection. HEK293T cells were transfected using Lipofectamine 2000 (Invitrogen) [80]. Six hours after transfection, the cells were collected and plated into a 48-well plate in 1% BSA media in biological triplicates and treated with compounds. After 40 h incubation, the cells were harvested and assayed for luciferase (Luc Assay System with Reporter Lysis Buffer, Promega) in a Beckman Coulter LD400 plate reader.
row,SMILES,EC50 [nM]
1,"Cc1cc2c(cc1N(C)c1ccc(C(=O)O)cc1)C(C)(C)CCC2(C)C [Compound 23, reference compound]",8.6
2,"Cc1cc2c(cc1N(C)c1ncc(C(=O)O)cn1)C(C)(C)CCC2(C)C [Compound 24, reference compound]",6.2
3,"CN(c1ccc2c(c1)C(C)(C)CCC2(C)C)c1ncc(C(=O)O)cn1 [Compound 25, reference compound]",17.8
4,Cc1ccc(/C=C/C(=O)O)cc1-c1cc2c(cc1C)C(C)(C)OCC2(C)C [Compound 27],65.3
5,Cc1cc2c(cc1-c1cc(/C=C/C(=O)O)ccc1C(F)(F)F)C(C)(C)COC2(C)C [Compound 28],59.2
6,Cc1cc2c(cc1-c1cc(/C=C/C(=O)O)ccc1O)C(C)(C)COC2(C)C [Compound 29],3.9
7,Cc1cc2c(cc1N(C)c1ccc(C(=O)O)cn1)C(C)(C)CCC2(C)C [Compound 31],5.4
8,C=CCN(c1ccc(C(=O)O)cn1)c1cc2c(cc1C)C(C)(C)CCC2(C)C [Compound 32],1.8
9,C=CCN(c1ncc(C(=O)O)cn1)c1cc2c(cc1C)C(C)(C)CCC2(C)C [Compound 33],5.3
10,C=CCN(c1ccc(C(=O)O)cc1)c1cc2c(cc1C)C(C)(C)CCC2(C)C [Compound 34],11.5
11,C=CCN(c1ccc2c(c1)C(C)(C)CCC2(C)C)c1ncc(C(=O)O)cn1 [Compound 35],0.54
12,Cc1cc2c(cc1N(C)c1ncc(C(=O)O)cn1)C(C)(C)COC2(C)C [Compound 37],405
13,CCN(c1ncc(C(=O)O)cn1)c1cc2c(cc1C)C(C)(C)OCC2(C)C [Compound 39],152
14,C=CCN(c1ccc(C(=O)O)cn1)c1cc2c(cc1C)C(C)(C)OCC2(C)C [Compound 40],10.7
15,C=CCN(c1ncc(C(=O)O)cn1)c1cc2c(cc1C)C(C)(C)OCC2(C)C [Compound 41],143

# Further lines, results first:
row,EC50 [nM],SMILES
1,51,C=C(c1ccc(C(=O)O)cc1)c1cc2c(cc1C)C(C)(C)OCC2(C)C [Compound 26]
2,> 1000,Cc1cc2c(cc1-c1coc3cc(C(=O)O)ccc13)C(C)(C)COC2(C)C [Compound 30]
3,75,Cc1cc2c(cc1N(C)c1ccc(C(=O)O)cn1)C(C)(C)COC2(C)C [Compound 36]
4,23.7,CCN(c1ccc(C(=O)O)cn1)c1cc2c(cc1C)C(C)(C)OCC2(C)C [Compound 38]
5,87.7,Cc1cc2c(cc1N(C)c1ccc(C(=O)O)cc1)C(C)(C)COC2(C)C [Compound 42]
6,23.1,CCN(c1ccc(C(=O)O)cc1)c1cc2c(cc1C)C(C)(C)OCC2(C)C [Compound 43]
7,116,C=CCN(c1ccc(C(=O)O)cc1)c1cc2c(cc1C)C(C)(C)OCC2(C)C [Compound 44]
